Among the targets are HLA A*3001 (Homo sapiens, UniProt P04439, D140H/D185E/E176W/F33S/G80R/H175R/K168Q/R138E/R41S); HLA B*1501 (Homo sapiens, UniProt P01889, A329T/A93T/A95T/C349S/D201E/D98Y/E187L/E204Q/E69M/E70A/K202T/N87E/Q94N/R155S/R180W/S121R/S35A/S48A/V306I/V36M/Y140S/Y91S); HLA B*1503 (Homo sapiens, UniProt P01889, A329T/A93T/A95T/C349S/D201E/D98Y/E187L/E204Q/K202T/N87E/Q94N/R155S/R180L/S121R/S35A/V306I/V36M/Y140S/Y91S).

Test in all cases: biochemical
Holding throughout (type): binding

Where a SMILES comes first, the peptide text is derived from it.

Results on 27 molecules are retold here after paper PMC2248166, “Quantitative peptide binding motifs for 19 human and mouse MHC class I molecules derived using positional scanning combinatorial peptide libraries” (Immunome Research, 2008).

The term IC50 denotes the concentration that gives 50% inhibition.

HLA A*3001, sequence (P04439 25-365 limits assumed, stated change not applied): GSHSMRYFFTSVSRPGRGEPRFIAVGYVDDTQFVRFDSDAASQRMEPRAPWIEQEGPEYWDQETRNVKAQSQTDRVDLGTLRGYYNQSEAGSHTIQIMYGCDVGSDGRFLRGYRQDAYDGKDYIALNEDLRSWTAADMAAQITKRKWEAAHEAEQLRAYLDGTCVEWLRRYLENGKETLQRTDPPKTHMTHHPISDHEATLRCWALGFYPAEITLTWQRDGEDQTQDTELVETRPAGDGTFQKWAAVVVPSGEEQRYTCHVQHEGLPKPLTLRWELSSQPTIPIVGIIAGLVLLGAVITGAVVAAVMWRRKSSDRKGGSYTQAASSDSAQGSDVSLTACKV

`CC[C@H](C)[C@H](NC(=O)[C@H](CC(N)=O)NC(=O)[C@H](CCCNC(=N)N)NC(=O)[C@@H](NC(=O)[C@@H](NC(=O)[C@H](CC(N)=O)NC(=O)[C@H](CCCNC(=N)N)NC(=O)[C@@H](NC(=O)[C@@H](N)CCCCN)[C@@H](C)O)C(C)C)[C@@H](C)CC)C(=O)O` [3102.0486] (H-KTRNVIRNI-OH) came in with an IC50 at HLA A*3001 of 0.072 nM.
The molecule `CC[C@H](C)[C@H](NC(=O)CNC(=O)[C@@H]1CCCN1C(=O)[C@@H](NC(=O)[C@H](CCCNC(=N)N)NC(=O)[C@H](CCC(N)=O)NC(=O)[C@H](CCCCN)NC(=O)[C@H](CC(C)C)NC(=O)[C@@H](N)CCCNC(=N)N)[C@@H](C)O)C(=O)O` [3102.0640] (H-RLKQRTPGI-OH) returned a concentration for half-maximal inhibition (IC50) against HLA B*1501 of 17 nM.
On to `CSCC[C@H](NC(=O)[C@H](CC(C)C)NC(=O)[C@H](Cc1ccc(O)cc1)NC(=O)[C@H](CCCCN)NC(=O)[C@H](CCSC)NC(=O)[C@@H](N)CO)C(=O)N[C@@H](CC(C)C)C(=O)N[C@@H](CC(C)C)C(=O)N[C@@H](Cc1ccccc1)C(=O)O` [3102.0789] (H-SMKYLMLLF-OH), for which the IC50 against HLA B*1501 was determined as 3.8 nM.
In turn, `CC(C)C[C@H](N)C(=O)NCC(=O)N[C@@H](Cc1ccccc1)C(=O)N[C@@H](CC(=O)O)C(=O)N[C@H](C(=O)N[C@H](C(=O)N[C@@H](C)C(=O)N[C@@H](Cc1ccc(O)cc1)C(=O)N[C@@H](Cc1ccccc1)C(=O)O)C(C)C)C(C)C` [3102.0790] (H-LGFDVVAYF-OH) came in with an IC50 against HLA B*1501 of 67 nM.
For the molecule `CC[C@H](C)[C@H](NC(=O)CN)C(=O)N[C@@H](CC(N)=O)C(=O)N[C@@H](CCCCN)C(=O)N[C@@H](CCCNC(=N)N)C(=O)N[C@@H](CO)C(=O)N[C@H](C(=O)N1CCC[C@H]1C(=O)N[C@@H](Cc1ccccc1)C(=O)O)[C@@H](C)O` [3102.0792] (H-GINKRSTPF-OH), inhibition against HLA B*1501 was half-maximal at 0.72 nM (IC50).
In the case of `CC[C@H](C)[C@H](NC(=O)[C@H](CO)NC(=O)[C@H](CO)NC(=O)[C@H](CCCCN)NC(=O)[C@@H](NC(=O)[C@@H](N)CC(C)C)C(C)C)C(=O)N[C@@H](CC(C)C)C(=O)N[C@H](C(=O)N[C@@H](CC(C)C)C(=O)O)[C@@H](C)O` [3102.0793] (H-LVKSSILTL-OH), the IC50 on HLA B*1501 was found to be 3.1 nM.
As for `CSCC[C@H](NC(=O)[C@@H](N)CCCNC(=N)N)C(=O)N[C@@H](CC(N)=O)C(=O)N[C@H](C(=O)N[C@@H](Cc1ccccc1)C(=O)N[C@@H](CC(N)=O)C(=O)NCC(=O)N[C@@H](Cc1c[nH]cn1)C(=O)N[C@@H](CC(C)C)C(=O)O)C(C)C` [3102.0797] (H-RMNVFNGHL-OH), on HLA B*1501, the IC50 came out at 28 nM.
The molecule `CC(C)C[C@H](N)C(=O)N[C@@H](C)C(=O)N[C@@H](CC(N)=O)C(=O)N[C@H](C(=O)N[C@@H](CC(N)=O)C(=O)N[C@@H](Cc1ccccc1)C(=O)N[C@@H](Cc1ccccc1)C(=O)N[C@H](C(=O)N[C@@H](Cc1ccccc1)C(=O)O)C(C)C)[C@@H](C)O` [3102.0800] (H-LANTNFFVF-OH) registered an IC50 on HLA B*1501 of 17 nM.
At HLA B*1501, `CC[C@H](C)[C@H](NC(=O)[C@@H](NC(=O)[C@@H](N)CO)[C@@H](C)CC)C(=O)N[C@H](C(=O)N[C@@H](CC(C)C)C(=O)N[C@@H](Cc1ccccc1)C(=O)N[C@@H](CCC(N)=O)C(=O)N[C@@H](CCCNC(=N)N)C(=O)N[C@@H](Cc1ccccc1)C(=O)O)C(C)C` [3102.0801] (H-SIIVLFQRF-OH) showed a half-inhibitory concentration (IC50) of 1.1 nM.
`CSCC[C@H](NC(=O)[C@H](CCC(=O)O)NC(=O)[C@H](C)NC(=O)[C@H](CC(N)=O)NC(=O)[C@H](CCC(=O)O)NC(=O)[C@H](CCCCN)NC(=O)[C@H](CC(N)=O)NC(=O)[C@H](CCSC)NC(=O)[C@@H](N)CC(C)C)C(=O)O` [3102.0802] (H-LMNKENAEM-OH): the IC50 on HLA B*1501 came to 7.7 nM.
Molecule `CC[C@H](C)[C@H](NC(=O)[C@@H](NC(=O)[C@@H](N)CC(C)C)[C@@H](C)CC)C(=O)N[C@@H](CCCCN)C(=O)N[C@@H](CO)C(=O)N[C@@H](CC(=O)O)C(=O)N[C@@H](Cc1c[nH]cn1)C(=O)N[C@@H](CCC(=O)O)C(=O)N[C@@H](Cc1ccccc1)C(=O)O` [3102.0804] (H-LIIKSDHEF-OH) registered an IC50 on HLA B*1501 of 1.6 nM.
With `CC[C@H](C)[C@H](NC(=O)[C@H](CCSC)NC(=O)[C@@H](N)CCC(=O)O)C(=O)N[C@@H](CC(C)C)C(=O)N[C@@H](CO)C(=O)N[C@H](C(=O)N[C@@H](CO)C(=O)N[C@@H](CO)C(=O)N[C@@H](CCSC)C(=O)O)[C@@H](C)O` [3102.0806] (H-EMILSTSSM-OH), the midpoint of inhibition against HLA B*1501, the IC50, lay at 1.5 nM.
The same measure, in the same setting: for `CC[C@H](C)[C@H](NC(=O)[C@H](CCC(N)=O)NC(=O)[C@@H](N)CC(C)C)C(=O)N[C@@H](Cc1ccccc1)C(=O)N[C@@H](CO)C(=O)N[C@@H](CC(N)=O)C(=O)N[C@@H](CO)C(=O)N[C@H](C(=O)NCC(=O)O)C(C)C` [3102.0809] (H-LQIFSNSVG-OH) the value was 2.1 nM; for `CC[C@H](C)[C@H](NC(=O)[C@@H](N)Cc1ccc(O)cc1)C(=O)N[C@@H](CO)C(=O)N[C@@H](CCCCN)C(=O)N[C@H](C(=O)N[C@@H](Cc1ccccc1)C(=O)N[C@@H](CCC(=O)O)C(=O)N[C@@H](Cc1c[nH]cn1)C(=O)N[C@H](C(=O)O)C(C)C)C(C)C` [3102.0810] (H-YISKVFEHV-OH), 94 nM; for `CC(C)C[C@H](N)C(=O)N[C@@H](C)C(=O)N[C@@H](CCCCN)C(=O)N[C@@H](CCCCN)C(=O)N[C@@H](CO)C(=O)N[C@@H](Cc1ccc(O)cc1)C(=O)N[C@H](C(=O)N[C@H](C(=O)N[C@@H](Cc1ccccc1)C(=O)O)C(C)C)C(C)C` [3102.0811] (H-LAKKSYVVF-OH), 97 nM.
Take `C[C@@H](O)[C@H](N)C(=O)N[C@@H](CO)C(=O)NCC(=O)N[C@@H](CCCCN)C(=O)N[C@@H](Cc1ccc(O)cc1)C(=O)N[C@@H](Cc1ccccc1)C(=O)N[C@@H](CO)C(=O)N[C@H](C(=O)N[C@@H](Cc1ccccc1)C(=O)O)[C@@H](C)O` [3102.0812] (H-TSGKYFSTF-OH): the IC50 against HLA B*1501 is 86 nM.
Take `CC(C)C[C@H](NC(=O)[C@H](CS)NC(=O)[C@H](CO)NC(=O)[C@H](CCCCN)NC(=O)[C@@H](NC(=O)[C@@H](N)CCCCN)C(C)C)C(=O)N[C@@H](CS)C(=O)N[C@@H](CO)C(=O)N[C@@H](Cc1ccccc1)C(=O)O` [3102.0813] (H-KVKSCLCSF-OH): half-maximal inhibition on HLA B*1501 (IC50) required 17 nM.
On the same count and under the same terms, for `CC[C@H](C)[C@H](NC(=O)[C@H](CCC(N)=O)NC(=O)[C@H](CCCNC(=N)N)NC(=O)[C@H](CC(C)C)NC(=O)[C@@H](N)CCCCN)C(=O)N[C@H](C(=O)N[C@@H](C)C(=O)N[C@@H](Cc1ccc(O)cc1)C(=O)N[C@@H](Cc1ccccc1)C(=O)O)C(C)C` [3102.0815] (H-KLRQIVAYF-OH) the value was 7.6 nM; for `CSCC[C@H](NC(=O)[C@@H](NC(=O)[C@H](CC(C)C)NC(=O)[C@H](CC(C)C)NC(=O)[C@H](Cc1ccc(O)cc1)NC(=O)[C@H](CCC(N)=O)NC(=O)[C@@H](N)CC(N)=O)[C@@H](C)O)C(=O)N[C@@H](Cc1ccccc1)C(=O)N[C@@H](Cc1ccccc1)C(=O)O` [3102.0819] (H-NQYLLTMFF-OH), 1.2 nM.
As for `CC[C@H](C)[C@H](NC(=O)[C@H](CC(=O)O)NC(=O)[C@H](CC(C)C)NC(=O)[C@H](Cc1ccccc1)NC(=O)[C@@H](N)CC(C)C)C(=O)N[C@@H](CCC(=O)O)C(=O)N[C@@H](CS)C(=O)N[C@@H](Cc1c[nH]cn1)C(=O)N[C@@H](Cc1ccccc1)C(=O)O` [3102.0932] (H-LFLDIECHF-OH), inhibition on HLA A*3001 was half-maximal at 19 nM (IC50).
On to `CC[C@H](C)[C@H](NC(=O)[C@H](Cc1c[nH]cn1)NC(=O)[C@H](Cc1ccc(O)cc1)NC(=O)[C@H](C)NC(=O)[C@H](CCCCN)NC(=O)[C@@H](N)CCCNC(=N)N)C(=O)N[C@H](C(=O)N[C@@H](Cc1ccccc1)C(=O)N[C@@H](Cc1ccccc1)C(=O)O)[C@@H](C)CC` [3102.1054] (H-RKAYHIIFF-OH), for which the values for the IC50 against HLA A*3001 and against HLA B*1503 were 5.4 nM and 0.037 nM, respectively.
Consider `CC(C)C[C@H](NC(=O)[C@H](CO)NC(=O)[C@H](CCC(N)=O)NC(=O)[C@@H](N)Cc1ccc(O)cc1)C(=O)N[C@@H](CO)C(=O)N1CCC[C@H]1C(=O)N1CCC[C@H]1C(=O)N1CCC[C@H]1C(=O)N[C@@H](Cc1ccccc1)C(=O)O` [3102.1242] (H-YQSLSPPPF-OH), for which the IC50 against HLA A*3001 was 0.5 nM; against HLA B*1503 it was 0.061 nM.
The molecule `CC(C)C[C@H](NC(=O)[C@H](CO)NC(=O)[C@H](CCCCN)NC(=O)[C@H](CO)NC(=O)[C@H](C)N)C(=O)N[C@@H](CCCCN)C(=O)N1CCC[C@H]1C(=O)N[C@H](C(=O)N[C@@H](CCCCN)C(=O)O)[C@@H](C)O` [3102.1346] (H-ASKSLKPTK-OH) yielded an IC50 against HLA A*3001 of 15 nM.
For `CC[C@H](C)[C@H](NC(=O)[C@H](CCCCN)NC(=O)[C@H](C)NC(=O)CN)C(=O)NCC(=O)N[C@@H](CS)C(=O)N[C@H](C(=O)N[C@@H](CC(N)=O)C(=O)N[C@H](C(=O)O)C(C)C)[C@@H](C)CC` [3102.1347] (H-GAKIGCINV-OH), the IC50 at HLA A*3001 was 9.1 nM.
The molecule `CC[C@H](C)[C@H](NC(=O)[C@H](CCCCN)NC(=O)[C@H](CO)NC(=O)[C@H](CCCCN)NC(=O)[C@@H](NC(=O)[C@@H](N)CCCNC(=N)N)[C@@H](C)O)C(=O)N[C@@H](CC(C)C)C(=O)N[C@@H](Cc1ccccc1)C(=O)NCC(=O)O` [3102.1348] (H-RTKSKILFG-OH) yielded an IC50 against HLA A*3001 of 10 nM.
On to `C[C@H](NC(=O)[C@H](C)NC(=O)[C@@H]1CCCN1C(=O)[C@H](CCCCN)NC(=O)[C@H](CO)NC(=O)[C@H](CCCNC(=N)N)NC(=O)[C@H](CO)NC(=O)[C@H](Cc1ccc(O)cc1)NC(=O)[C@@H](N)CCCCN)C(=O)O` [3102.1349] (H-KYSRSKPAA-OH), for which, at HLA A*3001, the IC50 turned out to be 5.7 nM.
The same measure, in the same setting: for `CC[C@H](C)[C@H](NC(=O)[C@H](Cc1ccc(O)cc1)NC(=O)[C@H](CCC(N)=O)NC(=O)[C@H](Cc1ccc(O)cc1)NC(=O)[C@H](CCSC)NC(=O)[C@H](C)NC(=O)[C@H](C)N)C(=O)N[C@@H](Cc1ccccc1)C(=O)N[C@@H](CC(C)C)C(=O)O` [3102.1350] (H-AAMYQYIFL-OH) the value was 7.5 nM.
